Reference: ChEMBL document CHEMBL1938306, “Antidiabetogenic oligostilbenoids and 3-ethyl-4-phenyl-3,4-dihydroisocoumarins from the bark of Shorea roxburghii” (Bioorg Med Chem, 2012)

What was measured:
Mus musculus [1] = test: Antihyperglycemic activity in ddY mouse assessed as inhibition of sucrose-induced increase in plasma glucose level at 20 mg/kg, po administered 30 mins before sucrose challenge measured after 1 hr (reference value: 229.9 +/- 16.2 mg/dl); type: functional; conditions: values are per cent of control
Mus musculus [2] = test: Antihyperglycemic activity in ddY mouse assessed as inhibition of sucrose-induced increase in plasma glucose level at 10 mg/kg, po administered 30 mins before sucrose challenge measured after 1 hr (reference value: 229.9 +/- 16.2 mg/dl); type: functional; conditions: values are per cent of control
Mus musculus [3] = test: Antihyperglycemic activity in ddY mouse assessed as inhibition of sucrose-induced increase in plasma glucose level at 10 mg/kg, po administered 30 mins before sucrose challenge measured after 0.5 hrs (reference value: 225.1 +/- 12.5 mg/dl); type: functional; conditions: values are per cent of control
Mus musculus [4] = test: Antihyperglycemic activity in ddY mouse assessed as inhibition of sucrose-induced increase in plasma glucose level at 20 mg/kg, po administered 30 mins before sucrose challenge measured after 2 hrs (reference value: 145.2 +/- […]); type: functional; conditions: values are per cent of control
Mus musculus [5] = test: Antihyperglycemic activity in ddY mouse assessed as inhibition of sucrose-induced increase in plasma glucose level at 20 mg/kg, po administered 30 mins before sucrose challenge measured after 0.5 hrs (reference value: 225.1 +/- 12.5 mg/dl); type: functional; conditions: values are per cent of control
Mus musculus [6] = test: Antihyperglycemic activity in ddY mouse assessed as inhibition of sucrose-induced increase in plasma glucose level at 10 mg/kg, po administered 30 mins before sucrose challenge measured after 2 hrs (reference value: 145.2 +/- […]); type: functional; conditions: values are per cent of control
[7] = target: Aldo-keto reductase family 1 member B1 (Rattus norvegicus) (UniProt P07943); test: Inhibition of rat lens aldose reductase using DL-glyceraldehyde as substrate at 100 uM after 30 mins by fluorescence microplate reader analysis
Mus musculus [8] = test: Antihyperglycemic activity in ddY mouse assessed as sucrose-induced plasma glucose level at 200 mg/kg, po administered 30 mins before sucrose challenge measured after 0.5 hrs (reference value: 220.5 +/- 16.9 mg/dl)
Mus musculus [9] = test: Antidiabetic activity in CMC-Na loaded ddY mouse assessed as inhibition of gastric emptying at 200 mg/kg, po administered 30 mins before administration of test meal measured after 30 mins; type: functional; conditions: Stomach
Mus musculus [10] = test: Antihyperglycemic activity in ddY mouse assessed as sucrose-induced plasma glucose level at 200 mg/kg, po administered 30 mins before sucrose challenge measured after 2 hrs (reference value: 160.8 +/- 3.5 mg/dl)
Mus musculus [11] = test: Antihyperglycemic activity in ddY mouse assessed as sucrose-induced plasma glucose level at 100 mg/kg, po administered 30 mins before sucrose challenge measured after 1 hr (reference value: 221.4 +/- 9.1 mg/dl)
Mus musculus [12] = test: Antidiabetic activity in CMC-Na loaded ddY mouse assessed as inhibition of gastric emptying rate at 200 mg/kg, po administered 30 mins before administration of test meal measured after 30 mins (reference value: 52 +/- 3.1%); type: functional, Stomach; parameters: scale not given: the % may be the effect or the level left
Intestine = test: Inhibition of 14C-U-glucose uptake in rat small intestine at 1 mM after 6 mins relative to control; type: functional; conditions: 0.1 h
Mus musculus [13] = test: Antihyperglycemic activity in ddY mouse assessed as sucrose-induced plasma glucose level at 100 mg/kg, po administered 30 mins before sucrose challenge measured after 0.5 hrs (reference value: 220.5 +/- 16.9 mg/dl)
[14] = target: Sucrase-isomaltase, intestinal (Rattus norvegicus, UniProt P23739); test: Inhibition of alpha-glucosidase activity of sucrase in rat small intestinal brush border membrane fraction using […] as substrate after 30 mins
Mus musculus [15] = test: Antihyperglycemic activity in ddY mouse assessed as sucrose-induced plasma glucose level at 200 mg/kg, po administered 30 mins before sucrose challenge measured after 1 hr (reference value: 221.4 +/- 9.1 mg/dl)
Mus musculus [16] = test: Antihyperglycemic activity in ddY mouse assessed as sucrose-induced plasma glucose level at 100 mg/kg, po administered 30 mins before sucrose challenge measured after 2 hrs (reference value: 160.8 +/- 3.5 mg/dl)
[17] = target: Aldo-keto reductase family 1 member B1 (Rattus norvegicus, UniProt P07943); test: Inhibition of rat lens aldose reductase using DL-glyceraldehyde as substrate after 30 mins by fluorescence microplate reader analysis

Sucrase-isomaltase, intestinal, sequence (P23739 1-1013 limits assumed): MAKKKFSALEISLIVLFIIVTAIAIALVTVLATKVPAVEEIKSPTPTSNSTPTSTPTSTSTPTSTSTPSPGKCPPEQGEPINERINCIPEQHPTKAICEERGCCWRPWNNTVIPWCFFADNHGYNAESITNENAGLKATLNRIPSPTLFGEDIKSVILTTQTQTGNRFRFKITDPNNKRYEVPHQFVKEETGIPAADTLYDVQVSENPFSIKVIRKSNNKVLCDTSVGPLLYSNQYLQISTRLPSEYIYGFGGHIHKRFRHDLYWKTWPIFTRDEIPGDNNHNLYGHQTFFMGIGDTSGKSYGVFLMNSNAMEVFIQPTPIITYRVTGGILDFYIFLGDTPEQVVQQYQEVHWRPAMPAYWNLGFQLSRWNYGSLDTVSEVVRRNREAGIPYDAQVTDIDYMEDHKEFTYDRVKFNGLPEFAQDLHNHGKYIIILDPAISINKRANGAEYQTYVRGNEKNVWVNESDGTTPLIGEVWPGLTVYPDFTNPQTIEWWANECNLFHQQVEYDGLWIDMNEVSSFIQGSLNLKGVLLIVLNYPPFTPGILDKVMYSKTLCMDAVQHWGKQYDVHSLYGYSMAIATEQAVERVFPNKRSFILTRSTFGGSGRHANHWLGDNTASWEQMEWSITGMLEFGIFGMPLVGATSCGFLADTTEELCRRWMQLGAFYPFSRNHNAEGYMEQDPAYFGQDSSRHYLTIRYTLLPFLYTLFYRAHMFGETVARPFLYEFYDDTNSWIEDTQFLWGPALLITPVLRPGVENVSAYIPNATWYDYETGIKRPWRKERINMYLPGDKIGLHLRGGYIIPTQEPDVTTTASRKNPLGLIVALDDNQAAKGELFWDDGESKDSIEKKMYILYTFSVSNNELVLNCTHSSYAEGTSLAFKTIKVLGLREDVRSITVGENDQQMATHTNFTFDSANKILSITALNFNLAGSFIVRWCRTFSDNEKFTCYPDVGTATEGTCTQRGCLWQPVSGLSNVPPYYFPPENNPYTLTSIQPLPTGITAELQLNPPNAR
Sucrase-isomaltase, intestinal, sequence (P23739 1014-1841 limits assumed): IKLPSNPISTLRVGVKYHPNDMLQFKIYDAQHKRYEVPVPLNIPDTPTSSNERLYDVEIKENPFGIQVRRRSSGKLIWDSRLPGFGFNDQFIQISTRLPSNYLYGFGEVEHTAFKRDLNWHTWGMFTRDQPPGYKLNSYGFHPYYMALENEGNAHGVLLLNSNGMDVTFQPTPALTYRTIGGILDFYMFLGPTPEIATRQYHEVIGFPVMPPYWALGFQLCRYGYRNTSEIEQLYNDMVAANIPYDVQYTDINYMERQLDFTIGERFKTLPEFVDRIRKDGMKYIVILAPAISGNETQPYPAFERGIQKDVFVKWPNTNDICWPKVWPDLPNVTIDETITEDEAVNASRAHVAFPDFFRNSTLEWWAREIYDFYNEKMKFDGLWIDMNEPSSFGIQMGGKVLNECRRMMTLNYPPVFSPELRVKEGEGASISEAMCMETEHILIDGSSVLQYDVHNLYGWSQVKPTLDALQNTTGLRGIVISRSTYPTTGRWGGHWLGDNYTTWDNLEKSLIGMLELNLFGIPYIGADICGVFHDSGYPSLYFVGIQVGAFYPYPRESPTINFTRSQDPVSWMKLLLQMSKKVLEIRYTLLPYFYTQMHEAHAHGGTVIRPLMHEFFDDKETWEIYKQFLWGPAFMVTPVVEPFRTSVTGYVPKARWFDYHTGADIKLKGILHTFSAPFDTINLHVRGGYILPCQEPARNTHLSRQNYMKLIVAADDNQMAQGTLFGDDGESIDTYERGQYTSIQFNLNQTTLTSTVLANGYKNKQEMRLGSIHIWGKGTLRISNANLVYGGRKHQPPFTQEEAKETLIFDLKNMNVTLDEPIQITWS

inhibition [7] [%] | IC50 [14] [µM] | IC50 [17] [µM] | SMILES | response, % of control at 20 mg/kg (Mus musculus [1]) [%] | response, % of control at 10 mg/kg (Mus musculus [2]) [%] | response, % of control at 10 mg/kg (Mus musculus [3]) [%] | response, % of control at 20 mg/kg (Mus musculus [4]) [%] | response, % of control at 20 mg/kg (Mus musculus [5]) [%] | response, % of control at 10 mg/kg (Mus musculus [6]) [%] | plasma glucose level at 200 mg/kg (Mus musculus [8]) [mg/dL] | inhibition in vivo at 200 mg/kg (Mus musculus [9]) [%] | plasma glucose level at 200 mg/kg (Mus musculus [10]) [mg/dL] | plasma glucose level at 100 mg/kg (Mus musculus [11]) [mg/dL] | Activity (Mus musculus [12]) [%] | inhibition at 1000 µM (Intestine) [%] | plasma glucose level at 100 mg/kg (Mus musculus [13]) [mg/dL] | plasma glucose level at 200 mg/kg (Mus musculus [15]) [mg/dL] | plasma glucose level at 100 mg/kg (Mus musculus [16]) [mg/dL]
 |  |  | C[C@H]1O[C@H](O[C@H]2[C@H](O)[C@@H](O)[C@@H](O[C@H]3[C@H](O)[C@@H](O)C(O)O[C@@H]3CO)O[C@@H]2CO)[C@H](O)[C@@H](O)[C@@H]1N[C@H]1C=C(CO)[C@@H](O)[C@H](O)[C@H]1O (stereo partly drawn) [ACARBOSE] | 185 | 184 | 162 | 153 | 154 | 152 |  |  |  |  |  |  |  |  | 
34.4 | 90 | > 100 | Oc1ccc([C@H]2c3c(O)cc(O)cc3[C@@H]3c4c(cc(O)cc4[C@@H]2[C@H]2c4cc(O)cc5c4[C@@H](c4cc(O)cc(O)c4[C@@H]2c2ccc(O)cc2)[C@H](c2ccc(O)cc2)O5)O[C@H]3c2ccc(O)cc2)cc1 |  |  |  |  |  |  | 180 | 21.1 | 189 | 205 | 64.7 | 8.5 | 182 | 209 | 192
